Data reported in ChEMBL document CHEMBL1140238, “Synthesis of selective SRPK-1 inhibitors: novel tricyclic quinoxaline derivatives” (Bioorg Med Chem Lett, 2005).

Tests used:
[1] = biological target: Mitogen-activated protein kinase 8 (Homo sapiens) (UniProt P45983); assay: In vitro percent inhibition of c-Jun N-terminal kinase 1-alpha 1 at 10 uM concentration of compound dissolved in 100% DMSO using 5''-[gamma-33P]-triphosphate
[2] = In vitro percent inhibition of Cyclin-dependent kinase 2-cyclin A at 10 uM concentration of compound dissolved in 100% DMSO using 5''-[gamma-33P]-triphosphate
[3] = biological target: Ribosomal protein S6 kinase (P70S6K) (Homo sapiens) (UniProt Q9UBS0+P23443); assay: In vitro percent inhibition of Ribosomal protein S6 kinase at 10 uM concentration of compound dissolved in 100% DMSO using 5''-[gamma-33P]-triphosphate; assay type: protein-complex assay
[4] = biological target: Glycogen synthase kinase-3 beta (Homo sapiens) (UniProt P49841); assay: In vitro percent inhibition of Glycogen synthase kinase 3 beta at 10 uM concentration of compound dissolved in 100% DMSO using 5''-[gamma-33P]-triphosphate
[5] = biological target: RAF proto-oncogene serine/threonine-protein kinase (Homo sapiens) (UniProt P04049); assay: In vitro percent inhibition of RAF proto-oncogene serine/threonine-protein kinase at 10 uM concentration of compound dissolved in 100% DMSO using 5''-[gamma-33P]-triphosphate
[6] = biological target: Platelet-derived growth factor receptor beta (Homo sapiens) (UniProt P09619); assay: In vitro percent inhibition of Platelet-derived growth factor receptor, beta polypeptide at 10 uM concentration of compound dissolved in 100% DMSO using 5''-[gamma-33P]-triphosphate
[7] = biological target: Mast/stem cell growth factor receptor Kit (Homo sapiens) (UniProt P10721); assay: In vitro percent inhibition of v-kit Hardy-Zuckerman 4 feline sarcoma viral oncogene homolog at 10 uM concentration of compound dissolved in 100% DMSO using 5''-[gamma-33P]-triphosphate
[8] = biological target: Insulin receptor (Homo sapiens) (UniProt P06213); assay: In vitro percent inhibition of Insulin receptor at 10 uM concentration of compound dissolved in 100% DMSO using 5''-[gamma-33P]-triphosphate
[9] = biological target: Hepatocyte growth factor receptor (Homo sapiens) (UniProt P08581); assay: In vitro percent inhibition of Met proto-oncogene tyrosine kinase at 10 uM concentration of compound dissolved in 100% DMSO using 5''-[gamma-33P]-triphosphate
[10] = biological target: Mitogen-activated protein kinase 3 (Homo sapiens) (UniProt P27361); assay: In vitro percent inhibition of Mitogen-activated protein kinase 3 at 10 uM concentration of compound dissolved in 100% DMSO using 5''-[gamma-33P]-triphosphate
[11] = biological target: RAC-alpha serine/threonine-protein kinase (Homo sapiens) (UniProt P31749); assay: In vitro percent inhibition of Protein kinase B, alpha at 10 uM concentration of compound dissolved in 100% DMSO using 5''-[gamma-33P]-triphosphate
[12] = biological target: Tyrosine-protein kinase Lck (Homo sapiens) (UniProt P06239); assay: In vitro percent inhibition of p56 Lck tyrosine kinase at 10 uM concentration of compound dissolved in 100% DMSO using 5''-[gamma-33P]-triphosphate
[13] = biological target: Rho-associated protein kinase 2 (Homo sapiens) (UniProt O75116); assay: In vitro percent inhibition of Protein kinase ROCK2 at 10 uM concentration of compound dissolved in 100% DMSO using 5''-[gamma-33P]-triphosphate
[14] = biological target: Casein kinase I isoform alpha (Homo sapiens) (UniProt P48729); assay: In vitro percent inhibition of Casein kinase 1 alpha at 10 uM concentration of compound dissolved in 100% DMSO using 5''-[gamma-33P]-triphosphate
[15] = biological target: T1, Inhibitor of nuclear factor kappa-B kinase subunit beta (Homo sapiens) (UniProt O14920); assay: In vitro percent inhibition of I-kappa-B-kinase beta at 10 uM concentration of compound dissolved in 100% DMSO using 5''-[gamma-33P]-triphosphate
T1 sequence (whole entry): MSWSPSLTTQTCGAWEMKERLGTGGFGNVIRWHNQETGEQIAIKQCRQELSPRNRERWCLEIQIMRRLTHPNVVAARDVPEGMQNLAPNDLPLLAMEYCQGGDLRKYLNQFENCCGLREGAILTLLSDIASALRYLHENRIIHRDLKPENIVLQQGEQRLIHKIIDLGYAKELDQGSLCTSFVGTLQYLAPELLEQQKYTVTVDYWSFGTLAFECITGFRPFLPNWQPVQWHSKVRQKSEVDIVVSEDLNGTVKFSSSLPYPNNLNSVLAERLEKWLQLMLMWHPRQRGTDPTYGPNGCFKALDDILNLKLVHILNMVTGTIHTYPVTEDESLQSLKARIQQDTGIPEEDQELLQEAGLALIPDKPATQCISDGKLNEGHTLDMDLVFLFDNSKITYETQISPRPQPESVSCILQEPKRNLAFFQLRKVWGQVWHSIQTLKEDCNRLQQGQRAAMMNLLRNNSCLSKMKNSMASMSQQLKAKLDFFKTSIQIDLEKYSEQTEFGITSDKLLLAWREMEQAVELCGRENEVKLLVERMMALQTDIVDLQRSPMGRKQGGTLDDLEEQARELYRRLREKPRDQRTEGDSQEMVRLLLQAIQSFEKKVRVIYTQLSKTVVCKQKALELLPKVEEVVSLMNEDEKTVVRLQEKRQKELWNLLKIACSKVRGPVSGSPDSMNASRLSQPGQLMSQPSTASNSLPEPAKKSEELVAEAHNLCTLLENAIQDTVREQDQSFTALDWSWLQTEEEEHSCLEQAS

[16] = In vitro percent inhibition of Ribosomal S6 kinase 1 at 10 uM concentration of compound dissolved in 100% DMSO using 5''-[gamma-33P]-triphosphate
[17] = biological target: Proto-oncogene tyrosine-protein kinase Src (Homo sapiens) (UniProt P12931); assay: In vitro percent inhibition of c-Src tyrosine kinase at 10 uM concentration of compound dissolved in 100% DMSO using 5''-[gamma-33P]-triphosphate
[18] = biological target: T2, Tyrosine-protein kinase transforming protein Abl (Abelson murine leukemia virus) (UniProt P00521); assay: In vitro percent inhibition of v-Abl tyrosine kinase at 10 uM concentration of compound dissolved in 100% DMSO using 5''-[gamma-33P]-triphosphate
T2 sequence (whole entry): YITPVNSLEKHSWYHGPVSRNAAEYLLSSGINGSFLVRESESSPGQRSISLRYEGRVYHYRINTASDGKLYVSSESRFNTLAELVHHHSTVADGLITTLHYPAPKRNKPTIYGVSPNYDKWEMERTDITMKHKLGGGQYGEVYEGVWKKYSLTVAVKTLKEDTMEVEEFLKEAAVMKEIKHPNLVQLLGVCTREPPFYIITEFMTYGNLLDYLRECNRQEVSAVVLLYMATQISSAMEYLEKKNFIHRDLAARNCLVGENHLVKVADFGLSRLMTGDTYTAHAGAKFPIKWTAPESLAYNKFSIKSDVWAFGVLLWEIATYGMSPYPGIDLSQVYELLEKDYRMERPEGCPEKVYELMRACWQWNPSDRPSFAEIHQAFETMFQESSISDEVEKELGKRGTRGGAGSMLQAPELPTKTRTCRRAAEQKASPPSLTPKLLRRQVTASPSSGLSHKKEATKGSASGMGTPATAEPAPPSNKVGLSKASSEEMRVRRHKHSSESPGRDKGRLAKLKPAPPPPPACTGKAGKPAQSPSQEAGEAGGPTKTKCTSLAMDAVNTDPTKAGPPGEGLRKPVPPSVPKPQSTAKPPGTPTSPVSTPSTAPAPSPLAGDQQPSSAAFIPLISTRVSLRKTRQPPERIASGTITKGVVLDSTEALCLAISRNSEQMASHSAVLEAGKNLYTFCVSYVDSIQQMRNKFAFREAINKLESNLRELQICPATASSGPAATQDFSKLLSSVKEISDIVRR

[19] = Partition coefficient (logP); assay type: physicochemical; conditions: octanol/water
[20] = biological target: Epidermal growth factor receptor (Homo sapiens) (UniProt P00533); conditions: 10 uM

Chain of RAF proto-oncogene serine/threonine-protein kinase (Homo sapiens) (P04049 whole entry): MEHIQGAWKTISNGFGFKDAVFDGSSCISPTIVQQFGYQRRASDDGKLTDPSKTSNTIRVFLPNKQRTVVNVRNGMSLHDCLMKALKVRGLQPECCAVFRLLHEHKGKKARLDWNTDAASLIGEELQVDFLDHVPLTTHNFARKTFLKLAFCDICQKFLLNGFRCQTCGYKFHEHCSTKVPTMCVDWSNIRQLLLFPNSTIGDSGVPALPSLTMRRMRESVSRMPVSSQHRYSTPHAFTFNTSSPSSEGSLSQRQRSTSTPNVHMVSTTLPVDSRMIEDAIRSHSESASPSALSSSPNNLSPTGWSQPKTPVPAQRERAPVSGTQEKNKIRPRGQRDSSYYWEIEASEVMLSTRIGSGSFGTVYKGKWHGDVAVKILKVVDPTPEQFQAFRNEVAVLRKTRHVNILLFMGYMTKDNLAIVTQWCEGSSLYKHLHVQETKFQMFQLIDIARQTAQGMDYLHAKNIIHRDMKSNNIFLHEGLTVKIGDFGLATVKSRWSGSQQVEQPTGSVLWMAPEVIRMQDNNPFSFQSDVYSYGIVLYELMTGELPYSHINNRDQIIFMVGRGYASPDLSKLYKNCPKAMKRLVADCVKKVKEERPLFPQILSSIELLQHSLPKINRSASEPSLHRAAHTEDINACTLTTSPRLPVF
Chain of Hepatocyte growth factor receptor (Homo sapiens) (P08581 whole entry): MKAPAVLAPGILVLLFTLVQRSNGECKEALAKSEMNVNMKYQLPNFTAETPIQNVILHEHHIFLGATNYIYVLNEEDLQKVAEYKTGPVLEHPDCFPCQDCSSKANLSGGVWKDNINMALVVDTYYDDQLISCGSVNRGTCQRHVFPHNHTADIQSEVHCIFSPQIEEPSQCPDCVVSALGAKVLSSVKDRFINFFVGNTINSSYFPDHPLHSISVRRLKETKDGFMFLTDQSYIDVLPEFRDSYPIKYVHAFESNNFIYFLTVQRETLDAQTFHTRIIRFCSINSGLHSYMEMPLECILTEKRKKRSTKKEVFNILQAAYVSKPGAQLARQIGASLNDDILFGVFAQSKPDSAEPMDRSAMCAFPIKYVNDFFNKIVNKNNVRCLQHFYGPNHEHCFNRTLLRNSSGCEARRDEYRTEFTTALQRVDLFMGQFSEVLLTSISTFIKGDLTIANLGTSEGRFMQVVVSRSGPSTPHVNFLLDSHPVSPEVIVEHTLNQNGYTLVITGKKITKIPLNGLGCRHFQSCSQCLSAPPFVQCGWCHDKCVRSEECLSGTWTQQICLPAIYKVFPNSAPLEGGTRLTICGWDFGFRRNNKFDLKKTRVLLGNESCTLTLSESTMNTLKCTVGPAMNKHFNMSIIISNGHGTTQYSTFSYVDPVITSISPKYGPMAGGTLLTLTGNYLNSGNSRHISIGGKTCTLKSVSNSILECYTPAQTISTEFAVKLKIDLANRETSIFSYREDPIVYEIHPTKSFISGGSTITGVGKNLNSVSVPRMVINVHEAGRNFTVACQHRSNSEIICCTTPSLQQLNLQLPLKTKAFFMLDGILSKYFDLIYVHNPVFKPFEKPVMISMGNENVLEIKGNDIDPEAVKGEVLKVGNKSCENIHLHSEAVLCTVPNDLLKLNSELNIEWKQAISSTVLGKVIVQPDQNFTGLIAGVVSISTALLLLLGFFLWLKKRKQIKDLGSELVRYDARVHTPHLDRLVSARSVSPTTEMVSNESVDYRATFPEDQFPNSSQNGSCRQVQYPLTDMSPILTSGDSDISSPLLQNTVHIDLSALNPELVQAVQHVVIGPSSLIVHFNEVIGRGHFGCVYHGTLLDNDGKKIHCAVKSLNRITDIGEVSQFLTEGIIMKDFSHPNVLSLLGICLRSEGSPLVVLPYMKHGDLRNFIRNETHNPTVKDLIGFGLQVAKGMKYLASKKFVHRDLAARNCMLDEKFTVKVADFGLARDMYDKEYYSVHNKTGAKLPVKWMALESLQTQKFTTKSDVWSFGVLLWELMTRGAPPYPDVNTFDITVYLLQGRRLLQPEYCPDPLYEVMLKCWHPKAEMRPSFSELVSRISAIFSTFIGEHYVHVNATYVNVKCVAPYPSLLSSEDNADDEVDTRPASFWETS
Chain of Mitogen-activated protein kinase 8 (Homo sapiens) (P45983 whole entry): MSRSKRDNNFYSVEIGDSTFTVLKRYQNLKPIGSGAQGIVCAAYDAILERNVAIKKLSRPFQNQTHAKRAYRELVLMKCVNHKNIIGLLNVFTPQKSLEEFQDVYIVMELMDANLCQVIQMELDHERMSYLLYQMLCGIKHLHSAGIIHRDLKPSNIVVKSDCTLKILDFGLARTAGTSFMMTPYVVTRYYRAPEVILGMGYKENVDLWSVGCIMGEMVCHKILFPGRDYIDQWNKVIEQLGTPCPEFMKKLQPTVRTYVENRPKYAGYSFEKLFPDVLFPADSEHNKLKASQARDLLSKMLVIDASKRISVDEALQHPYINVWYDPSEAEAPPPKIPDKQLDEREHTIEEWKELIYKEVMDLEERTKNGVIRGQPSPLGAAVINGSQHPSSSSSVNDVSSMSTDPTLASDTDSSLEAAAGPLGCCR
Chain of Rho-associated protein kinase 2 (Homo sapiens) (O75116 whole entry, looked up, canonical isoform): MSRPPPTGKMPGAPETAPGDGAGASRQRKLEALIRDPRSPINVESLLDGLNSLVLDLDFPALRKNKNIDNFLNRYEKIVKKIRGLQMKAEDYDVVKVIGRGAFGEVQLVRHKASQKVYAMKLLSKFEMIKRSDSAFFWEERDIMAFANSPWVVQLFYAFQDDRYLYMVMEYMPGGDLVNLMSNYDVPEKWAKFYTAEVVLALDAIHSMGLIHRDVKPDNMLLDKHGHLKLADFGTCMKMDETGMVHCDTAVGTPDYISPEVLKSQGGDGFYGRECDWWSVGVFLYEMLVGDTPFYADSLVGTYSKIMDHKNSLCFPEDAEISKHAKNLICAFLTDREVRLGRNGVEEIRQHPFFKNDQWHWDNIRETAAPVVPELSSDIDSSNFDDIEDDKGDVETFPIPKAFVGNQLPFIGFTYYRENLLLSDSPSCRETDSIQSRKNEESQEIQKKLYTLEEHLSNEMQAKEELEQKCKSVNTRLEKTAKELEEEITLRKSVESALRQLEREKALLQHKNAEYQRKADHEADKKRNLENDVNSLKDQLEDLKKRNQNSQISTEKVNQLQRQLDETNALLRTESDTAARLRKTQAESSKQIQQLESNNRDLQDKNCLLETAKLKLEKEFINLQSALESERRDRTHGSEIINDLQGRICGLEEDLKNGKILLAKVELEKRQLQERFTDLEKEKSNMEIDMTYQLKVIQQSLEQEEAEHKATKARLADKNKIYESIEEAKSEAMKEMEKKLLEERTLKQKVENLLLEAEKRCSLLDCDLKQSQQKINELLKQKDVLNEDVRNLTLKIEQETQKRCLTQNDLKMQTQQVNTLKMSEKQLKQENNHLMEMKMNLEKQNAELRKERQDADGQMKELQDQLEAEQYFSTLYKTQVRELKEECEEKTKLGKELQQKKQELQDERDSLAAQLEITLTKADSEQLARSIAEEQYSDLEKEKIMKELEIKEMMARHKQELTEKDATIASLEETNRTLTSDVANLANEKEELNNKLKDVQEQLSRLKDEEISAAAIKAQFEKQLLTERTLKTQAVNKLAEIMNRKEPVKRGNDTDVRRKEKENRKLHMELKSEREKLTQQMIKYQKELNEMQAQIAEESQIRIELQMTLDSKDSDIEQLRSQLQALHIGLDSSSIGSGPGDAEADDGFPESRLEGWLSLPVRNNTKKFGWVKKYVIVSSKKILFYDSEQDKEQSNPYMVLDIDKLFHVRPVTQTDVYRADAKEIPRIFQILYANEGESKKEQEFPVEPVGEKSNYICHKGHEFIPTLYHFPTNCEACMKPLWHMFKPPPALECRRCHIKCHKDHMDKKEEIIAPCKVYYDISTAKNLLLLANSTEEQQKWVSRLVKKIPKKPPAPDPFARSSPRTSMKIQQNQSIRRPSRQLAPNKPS
Chain of Platelet-derived growth factor receptor beta (Homo sapiens) (P09619 whole entry): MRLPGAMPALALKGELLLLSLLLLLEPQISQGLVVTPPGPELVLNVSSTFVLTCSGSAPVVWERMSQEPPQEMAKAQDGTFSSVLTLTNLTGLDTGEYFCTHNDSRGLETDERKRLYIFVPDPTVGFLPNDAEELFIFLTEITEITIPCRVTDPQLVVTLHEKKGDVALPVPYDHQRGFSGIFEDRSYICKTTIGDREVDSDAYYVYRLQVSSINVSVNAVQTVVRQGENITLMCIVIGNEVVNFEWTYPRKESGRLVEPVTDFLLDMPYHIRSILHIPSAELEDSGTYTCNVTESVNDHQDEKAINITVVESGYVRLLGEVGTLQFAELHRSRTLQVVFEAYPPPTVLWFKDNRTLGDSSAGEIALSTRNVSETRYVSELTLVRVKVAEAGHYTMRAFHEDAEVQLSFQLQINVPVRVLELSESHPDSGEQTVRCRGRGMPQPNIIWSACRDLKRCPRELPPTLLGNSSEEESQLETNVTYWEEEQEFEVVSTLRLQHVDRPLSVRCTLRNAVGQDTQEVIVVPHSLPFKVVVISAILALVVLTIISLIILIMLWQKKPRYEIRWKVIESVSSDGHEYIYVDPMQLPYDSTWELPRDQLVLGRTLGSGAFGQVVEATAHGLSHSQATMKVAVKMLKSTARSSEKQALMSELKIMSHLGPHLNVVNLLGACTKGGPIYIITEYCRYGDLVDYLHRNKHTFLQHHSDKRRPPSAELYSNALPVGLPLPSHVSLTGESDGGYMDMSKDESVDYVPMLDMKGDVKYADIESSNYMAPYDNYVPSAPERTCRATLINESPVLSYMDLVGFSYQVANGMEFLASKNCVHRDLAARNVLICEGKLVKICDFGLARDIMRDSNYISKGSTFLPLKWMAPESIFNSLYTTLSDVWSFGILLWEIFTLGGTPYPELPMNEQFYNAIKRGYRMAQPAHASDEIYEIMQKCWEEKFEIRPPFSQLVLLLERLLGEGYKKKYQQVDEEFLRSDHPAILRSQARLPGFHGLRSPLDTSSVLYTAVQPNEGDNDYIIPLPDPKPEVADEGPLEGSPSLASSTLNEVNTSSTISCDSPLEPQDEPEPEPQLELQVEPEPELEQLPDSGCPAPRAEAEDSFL

| SMILES | inhibition [1] | inhibition [2] | inhibition [3] | inhibition [4] | inhibition [5] | inhibition [6] | inhibition [7] | inhibition [8] | inhibition [9] | inhibition [10] | inhibition [11] | inhibition [12] | inhibition [13] | inhibition [14] | inhibition [15] | inhibition [16] | inhibition [17] | inhibition [18] | logP [19] | inhibition [20] |
| --- | --- | --- | --- | --- | --- | --- | --- | --- | --- | --- | --- | --- | --- | --- | --- | --- | --- | --- | --- | --- |
| O=C(O)c1ccc2cc3nc(-c4cccs4)c(-c4cccs4)nc3cc2c1 | 20% |  | 5% | 4% | 6% | 68% | 56% | 42% | 49% | 18% | -10% | 47% | 15% | 10% | 42% | 3% | 83% | 11% | 5.4 | 40% |
| O=C(O)Cc1ccc(-c2nc3cc4ccccc4cc3nc2-c2ccc(CC(=O)O)s2)s1 | -3% | 8% | 17% | 47% | 39% | 10% | 15% | 5% | 27% | 52% | 15% | -9% | 5% | -2% | 25% | 23% | 14% | 10% | 3.3 | 52% |
| O=C(O)CCc1ccc(-c2nc3cc4ccccc4cc3nc2-c2ccc(CCC(=O)O)s2)s1 | -5% | -4% | 29% | 23% | 18% | 49% | 52% | -5% | 32% | 11% | 0% | -3% | 18% | 40% | 54% | 30% | 70% | 3% | 4.28 | 40% |

Next, values leading:

| inhibition [1] | inhibition [2] | inhibition [3] | inhibition [4] | inhibition [5] | inhibition [6] | inhibition [7] | inhibition [8] | inhibition [9] | inhibition [10] | inhibition [11] | inhibition [12] | inhibition [13] | inhibition [14] | inhibition [15] | inhibition [16] | inhibition [17] | inhibition [18] | logP [19] | inhibition [20] | SMILES |
| --- | --- | --- | --- | --- | --- | --- | --- | --- | --- | --- | --- | --- | --- | --- | --- | --- | --- | --- | --- | --- |
| 18% | -4% | 6% | -1% | 21% | 54% | 38% | 29% | 34% | 14% | -6% | 41% | 31% | 9% | 28% | 1% | 71% | 14% | 4.8 | 35% | c1csc(-c2nc3cc4c(cc3nc2-c2cccs2)OCO4)c1 |
| -3% | 7% | -8% | 5% | 3% |  | -7% | -4% | 0% | 25% | -7% | 1% |  | 9% | 3% | 6% | -3% | 1% | 4.2 | 25% | Oc1cc2nc(-c3cccs3)c(-c3cccs3)nc2cc1O |
| 24% | 1% |  |  | 4% | 61% | 46% | 48% | 42% | 31% |  | 53% | 41% | 8% | 38% | 19% | 84% | 11% | 5 | 34% | c1csc(-c2nc3cc4c(cc3nc2-c2cccs2)OCCO4)c1 |
| 6% | 3% | 8% | 6% | 16% | 15% | 8% | 55% | 43% | 11% | 12% |  | 19% | 7% | 6% | 6% | 20% | 4% | 5.98 | 6% | c1csc(-c2nc3cc4ccccc4cc3nc2-c2cccs2)c1 |
